For assay [1], the system named is ART24. The assay is described as follows: Antibiotic susceptibility of ART24 lots and cell banks, MIC following EFSA testing recommendations (Table 3). The format is cell-based, Bacillus amyloliquefaciens. The settings on record: for MIC: Bacillus amyloliquefaciens. The method, then:
The minimum inhibitory concentration (MIC) of the listed antimicrobials is expressed as μg/mL. Additional studies following EFSA testing recommendations were performed on lyophilized ART24 lots CO-33-10A2 and CO-33-12A2 and Research and Master Cell Banks CO-33-ART24 BHI and CO-33-ART24 SYD, and those results are shown in Table 3.

In assay [2] the test system is ART24. The assay is described as follows: Antibiotic susceptibility of ART24, MIC, VetMIC panels (Table 2). The format is cell-based, Bacillus amyloliquefaciens. The settings on record: Bacillus amyloliquefaciens, read-out: ART24 MIC. The procedure:
The minimum inhibitory concentration (MIC) of the listed antimicrobials is expressed as μg/mL. […] The wells of the prefabricated 96-well plates were filled with 100 μL of the final suspension. The plates were sealed with an […], Sigma Aldrich) sealing film (to facilitate growth of the aerobic Bacillus. The plates were then incubated for 24 hr at 37° C. The results are recorded after 24 hours as the lowest concentration of the antibiotic to inhibit visible growth. The prefabricated panels […], Uppsala, Sweden) comprising the antibiotics ampicillin, vancomycin, gentamicin, kanamycin, streptomycin, erythromycin, clindamycin, tetracycline, chloramphenicol, neomycin, penicillin, quinupristin-dalfopristin, linezolid, trimethoprim, ciprofloxacin and rifampicin were used.

[3] abbreviates: ART24 source: cell bank CO-33 ART 24 BHI.
Where [4] appears, read: ART24 source: cell bank CO-33 ART 024 SYD.
Where [5] appears, read: ART24 source: lyophilized lot CO-33-10A2.
The mark [6] stands for this setting: ART24 source: lyophilized lot CO-33-12A2.
[7] abbreviates: ART24 source: cell bank CO-33 ART 24 BHI, read-out: MIC, CO-33 ART 24 BHI.
The mark [8] stands for this setting: ART24 source: cell bank CO-33 ART 024 SYD, read-out: MIC, CO-33 ART 024 SYD.
[9] abbreviates: ART24 source: lyophilized lot CO-33-10A2, read-out: MIC, CO-33-10A2.
Where [10] appears, read: ART24 source: lyophilized lot CO-33-12A2, read-out: MIC, CO-33-12A2.
Setting [11] is: 24 hr at 37° C., average results from N = 6.

Structures are written as SMILES. In brackets after ≈: the same amount, converted by molar mass.

As usually defined, the MIC is the least concentration at which growth counts as inhibited. In the case of `CN[C@H](CC(C)C)C(=O)N[C@H]1C(=O)N[C@@H](CC(N)=O)C(=O)N[C@H]2C(=O)N[C@H]3C(=O)N[C@H](C(=O)N[C@H](C(=O)O)c4cc(O)cc(O)c4-c4cc3ccc4O)[C@H](O)c3ccc(c(Cl)c3)Oc3cc2cc(c3O[C@@H]2O[C@H](CO)[C@@H](O)[C@H](O)[C@H]2O[C@H]2C[C@](C)(N)[C@H](O)[C@H](C)O2)Oc2ccc(cc2Cl)[C@H]1O` [Vancomycin], the “MIC interpretation, CO-33 ART 24 BHI” value in the assay with ART24 [1] (setting [3]) is given as “S”. Also, the “MIC interpretation, CO-33 ART 024 SYD” value against ART24 [1] (setting [4]) is “S”. Moreover, the “MIC interpretation, CO-33-10A2” value against ART24 [1] (setting [5]) is recorded as “S”. In the assay with ART24 [1] (setting [6]), the “MIC interpretation, CO-33-12A2” value was “S”. Moreover, the MIC in the assay with ART24 [1] (read-out: MIC, CO-33-10A2) is no more than 0.25 µg/mL; with ART24 [1] (read-out: MIC, CO-33-12A2) it was no more than 0.25 µg/mL; with ART24 [1] (read-out: MIC, CO-33 ART 24 BHI), 0.5 µg/mL (≈ 0.345 µM); in the assay on ART24 [1] (read-out: MIC, CO-33 ART 024 SYD), no more than 0.25 µg/mL; in the assay on ART24 [2] (24 h) it was 0.5 to 1 µg/mL (≈ 0.345 to 0.69 µM).
Regarding `CC[C@H]1OC(=O)[C@H](C)[C@@H](O[C@H]2C[C@@](C)(OC)[C@@H](O)[C@H](C)O2)[C@H](C)[C@@H](O[C@@H]2O[C@H](C)C[C@H](N(C)C)[C@H]2O)[C@](C)(O)C[C@@H](C)C(=O)[C@H](C)[C@@H](O)[C@]1(C)O` [Erythromycin], the “MIC interpretation, CO-33 ART 24 BHI” value with ART24 [1] (setting [3]) is on record as “S”. Also, the “MIC interpretation, CO-33 ART 024 SYD” value against ART24 [1] (setting [4]) is “S”. In the assay with ART24 [1] (setting [5]), the “MIC interpretation, CO-33-10A2” value is on record as “S”. The “MIC interpretation, CO-33-12A2” value against ART24 [1] (setting [6]) is reported as “S”. Also, the minimum inhibitory concentration (MIC) amounted to 0.12 µg/mL (≈ 0.164 µM) with ART24 [1] (setting [7]); 0.12 µg/mL (≈ 0.164 µM) in the assay on ART24 [1] (setting [8]); 0.06 µg/mL (≈ 0.0818 µM) in the assay on ART24 [1] (setting [9]); 0.06 µg/mL (≈ 0.0818 µM) in the assay with ART24 [1] (setting [10]); 0.12 µg/mL (≈ 0.164 µM) in the assay with ART24 [2] (setting [11]).
With `CC1(C)S[C@@H]2[C@H](NC(=O)[C@H](N)c3ccccc3)C(=O)N2[C@H]1C(=O)O` [Ampicillin], the “MIC interpretation, CO-33 ART 24 BHI” value in the assay with ART24 [1] (setting [3]) was “S”. In addition, the “MIC interpretation, CO-33 ART 024 SYD” value against ART24 [1] (setting [4]) is “S”. In the assay on ART24 [1] (setting [5]), the “MIC interpretation, CO-33-10A2” value is “S”. For the same compound, the “MIC interpretation, CO-33-12A2” value in the assay with ART24 [1] (setting [6]) is given as “S”. Moreover, the MIC in the assay with ART24 [1] (setting [7]) is no more than 0.03 µg/mL; in the assay with ART24 [1] (setting [8]), no more than 0.03 µg/mL; in the assay with ART24 [1] (setting [9]), no more than 0.03 µg/mL; in the assay with ART24 [1] (setting [10]) it was no more than 0.03 µg/mL; in the assay with ART24 [2] (setting [11]), 0.25 µg/mL (≈ 0.715 µM).
Turning to `O=C(O)c1cn(C2CC2)c2cc(N3CCNCC3)c(F)cc2c1=O` [Ciprofloxacin], in the assay on ART24 [1] (setting [3]), the “MIC interpretation, CO-33 ART 24 BHI” value is recorded as “S”. The “MIC interpretation, CO-33 ART 024 SYD” value in the assay with ART24 [1] (setting [4]) is reported as “S”. Also, the “MIC interpretation, CO-33-10A2” value with ART24 [1] (setting [5]) is recorded as “S”. The “MIC interpretation, CO-33-12A2” value in the assay on ART24 [1] (setting [6]) is “S”. Moreover, the MIC in the assay on ART24 [1] (setting [7]) is no more than 0.03 µg/mL; in the assay on ART24 [1] (setting [8]) it was no more than 0.03 µg/mL; in the assay on ART24 [1] (setting [9]), no more than 0.03 µg/mL; in the assay with ART24 [1] (setting [10]) it was no more than 0.03 µg/mL; in the assay with ART24 [2] (setting [11]) it was no more than 0.25 µg/mL.
Take `CCC[C@@H]1C[C@@H](C(=O)N[C@@H]([C@H]2O[C@H](SC)[C@H](O)[C@@H](O)[C@H]2O)[C@H](C)Cl)N(C)C1` [Clindamycin]: in the assay on ART24 [1] (setting [3]), the “MIC interpretation, CO-33 ART 24 BHI” value is “S”. The “MIC interpretation, CO-33 ART 024 SYD” value against ART24 [1] (setting [4]) is on record as “S”. Also, in the assay on ART24 [1] (setting [5]), the “MIC interpretation, CO-33-10A2” value is reported as “S”. Moreover, the “MIC interpretation, CO-33-12A2” value with ART24 [1] (setting [6]) was “S”. The minimum inhibitory concentration (MIC) in the assay with ART24 [1] (setting [7]) is 0.25 µg/mL (≈ 0.588 µM); in the assay on ART24 [1] (setting [8]), 0.25 µg/mL (≈ 0.588 µM); with ART24 [1] (setting [9]), 0.12 µg/mL (≈ 0.282 µM); in the assay on ART24 [1] (setting [10]), 0.25 µg/mL (≈ 0.588 µM); in the assay with ART24 [2] (setting [11]), 0.5 to 1 µg/mL (≈ 1.18 to 2.35 µM).
With `CN(C)[C@@H]1C(O)=C(C(N)=O)C(=O)[C@@]2(O)C(O)=C3C(=O)c4c(O)cccc4[C@@](C)(O)[C@H]3C[C@@H]12` [Tetracycline], the “MIC interpretation, CO-33 ART 24 BHI” value against ART24 [1] (setting [3]) is listed as “S”. In the assay on ART24 [1] (setting [4]), the “MIC interpretation, CO-33 ART 024 SYD” value is “S”. In addition, in the assay on ART24 [1] (setting [5]), the “MIC interpretation, CO-33-10A2” value is recorded as “S”. For the same compound, the “MIC interpretation, CO-33-12A2” value against ART24 [1] (setting [6]) was “S”. For the same compound, the MIC in the assay on ART24 [1] (setting [7]) came to 2 µg/mL (≈ 4.5 µM); in the assay on ART24 [1] (setting [8]), 2 µg/mL (≈ 4.5 µM); in the assay on ART24 [1] (setting [9]) it was 2 µg/mL (≈ 4.5 µM); in the assay with ART24 [1] (setting [10]) it was 2 µg/mL (≈ 4.5 µM); in the assay on ART24 [2] (setting [11]) it was 4 µg/mL (≈ 9 µM).
With `CCc1c(Cl)c(O)c(Cl)c(O)c1C(=O)O[C@H]1[C@H](O)[C@H](OC)[C@H](OC/C2=C\C=C\C[C@H](O)/C(C)=C/[C@H](CC)[C@@H](O[C@@H]3OC(C)(C)[C@@H](OC(=O)C(C)C)[C@H](O)[C@@H]3O)/C(C)=C/C(C)=C/C[C@@H]([C@@H](C)O)OC2=O)O[C@@H]1C` [Fidaxomicin], the minimal inhibitory concentration (MIC) turned out to be 4 µg/mL (≈ 3.78 µM) with ART24 [1] (setting [7]), 4 µg/mL (≈ 3.78 µM) in the assay on ART24 [1] (setting [8]), 2 µg/mL (≈ 1.89 µM) with ART24 [1] (setting [9]) and 4 µg/mL (≈ 3.78 µM) in the assay on ART24 [1] (setting [10]).

The values above are taken from US20250121013A1, “USE OF BACILLUS AMYLOLIQUEFACIENS FOR PREVENTING AND TREATING PARKINSON'S DISEASE” (Artugen Therapeutics Ltd., priority 2021, published 2025).
